Assay [1] relates to Salmonella typhimurium (ATCC 14028). Nature of the assay: MIC/MBC broth dilution. The assay is classed as cell-based. Summed up: (§1)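 Broth dilution per CLSI; complexes at 50, 70, 100, 150 and 200 µg/mL incubated with bacteria overnight at 37 °C. Growth read at 600 nm; MIC/MBC (µg/mL) set by comparing cell density with vehicle (DMSO) control grown in LB medium.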
Assay [2] relates to Pseudomonas aeruginosa (ATCC 15442). Nature of the assay: MIC/MBC broth dilution. The class given is cell-based. Summed up: as §1
In assay [3] the test system is TNF-α expression in MDA-MB-231 cells. Nature of the assay: Immunofluorescence, TNF-α expression. The class given is cell-based, human. Particulars: 15 µM, 24 h. The procedure:
After a PBS wash, cells were fixed using cold methanol (15 min at −20 °C) and incubated overnight at 4 °C with the primary antibodies raised against NF-κB, iNOS, TNF-α, and COX-1 and 2 (Santa Cruz Biotechnology Inc., Santa Cruz, CA, USA) diluted in BSA 2%, as previously described. […] DAPI (Sigma Aldrich, Milan, Italy) 0.2 µg/mL was added for 10 min for nuclei counterstaining. A fluorescence microscope (Leica DM 6000) was used for visualizing images, and LAS-X software 3.5.7.23225 was used for acquisition and processing.

Turning to `Cn1c(=O)c2c(n(C)[c]([Au-][I])[n+]2CC(O)c2ccccc2)n(C)c1=O` (racemic) [AuL1, 1,3,7-Trimethylxanthin-9-[(2-hydroxy-2-phenyl)ethyl-8-ylidene]Au(I) Iodide], in assay [1], the “M.B.C. S. typhimurium” value was over 200 µg/mL and the “M.I.C. S. typhimurium” value is recorded as 150 µg/mL. For the same compound, in assay [2], the “M.B.C. P. aeruginosa” value is recorded as over 125 µg/mL and the “M.I.C. P. aeruginosa” value came to 100 µg/mL. The “Reduction in TNF-α expression (fluorescence quantification)” value in assay [3] is recorded as “about 60%”.
In the same order, the values of `CC(=O)[O][Ag-][c]1n(C)c2c(c(=O)n(C)c(=O)n2C)[n+]1C1CCCCC1O` (stereo not shown) [AgL2OAc, 1,3,7-Trimethylxanthin-9-[cyclohexan-2-ol-8-ylidene]Ag(I) Acetate] are over 200 µg/mL, 150 µg/mL, over 125 µg/mL, 100 µg/mL and about 50%.

The values above are taken from article PMC10931745 (International Journal of Molecular Sciences, 2024).
